{
  "source": "patent US20150099703A1",
  "about": "“TREATMENT OF POSTPARTUM HAEMORRHAGE WITH CHEMICALLY MODIFIED HEPARIN OR HEPARAN SULPHATE AND A UTEROTONIC AGENT” (DILAFOR AB, priority 2012, published 2015)",
  "key": {"[1]": {"test_system": "Human uterine smooth muscle cells", "test": "Intracellular Ca2+ measurement (Fluo-4, confocal live cell imaging) in uterine smooth muscle cells", "type": "cell-based", "experimental": "Human uterine smooth muscle cells were established in a culture. Intracellular Ca^2+ was measured with the calcium indicator dye Fluo-4 and live cell imaging with confocal microscopy was established for the cells."}, "[2]": {"details": "heparin, comparison; cited from earlier work"}},
  "note": "Positions of bridges follow the written chain, without caps; N, C: chain ends. Non-standard residues stand in square brackets, D forms with d. Residues, ends and D or L forms follow the SMILES beside them. Orn = NCCC[C@H](N)C(=O)O; Mpa = O=C(O)CCS",
  "data": [
    {"compound": "NCCOB(c1ccccc1)c1ccccc1", "note": "[2-APB, 2-Aminoethoxydiphenyl borate]", "values": [
      {"measurement": "effect on oxytocin stimulated Ca2+-transport", "setting": "[1]; 100 μM, 30 min of incubation", "result": "decreased strongly"},
      {"measurement": "effect on oxytocin/DF01 stimulated Ca2+-transport", "setting": "[1]; 100 μM, 30 min of incubation", "result": "decreased strongly"}
    ]},
    {"compound": "CCOc1ccc(C[C@H]2NC(=O)CCSSC[C@@H](C(=O)N3CCC[C@H]3C(=O)N[C@@H](CCCN)C(=O)NCC(N)=O)NC(=O)[C@H](CC(N)=O)NC(=O)[C@H]([C@@H](C)O)NC(=O)[C@H]([C@@H](C)CC)NC2=O)cc1", "note": "[Atosiban] ([Mpa][dY](Et)ITNCP[Orn]G-NH2; disulfide 1-6)", "values": [
      {"measurement": "effect on the combination oxytocin/DF01 effect on Ca2+ transport", "setting": "[1]; concentration of 10^−6 M", "result": "clearly inhibited"},
      {"measurement": "effect on the oxytocin effect on Ca2+ transport", "setting": "[1]; concentration of 10^−6 M", "result": "clearly inhibited"}
    ]},
    {"compound": "CC[C@H](C)[C@@H]1NC(=O)[C@H](Cc2ccc(O)cc2)NC(=O)[C@@H](N)CSSC[C@@H](C(=O)N2CCC[C@H]2C(=O)N[C@@H](CC(C)C)C(=O)NCC(N)=O)NC(=O)[C@H](CC(N)=O)NC(=O)[C@H](CCC(N)=O)NC1=O", "note": "[oxytocin]", "values": [
      {"measurement": "Ca2+-influx to the cytosol", "setting": "[1]; cells treated with oxytocin alone", "result": "Ca^2+-influx to the cytosol was demonstrated"},
      {"measurement": "concentration giving maximum effect on Ca2+-influx", "setting": "[1]; oxytocin alone, dose-dependent effect", "result": 0.05, "unit": "IU/ml"}
    ]},
    {"compound": "heparin", "values": [
      {"measurement": "corresponding (subcutaneous) bioavailability", "setting": "[2]", "result": "about 10%"}
    ]}
  ]
}
